Measurements: publication PMC6608569 (Bioorganic & medicinal chemistry letters, 2019)

Assays:
GRP78 = GRP78 (Homo sapiens, UniProt P11021); assay: Fluorescence polarization FITC-NRLLLTG peptide; details: peptide binding assay, 8-point dose responses
HCT116 cells [1] = assay: Unfolded protein response markers by immunoblot; format: cell-based; details: 16 hours, three concentrations
HCT116 cells [2] = assay: Annexin V / propidium iodide flow cytometry; format: cell-based

Chain of GRP78 (P11021 26-636): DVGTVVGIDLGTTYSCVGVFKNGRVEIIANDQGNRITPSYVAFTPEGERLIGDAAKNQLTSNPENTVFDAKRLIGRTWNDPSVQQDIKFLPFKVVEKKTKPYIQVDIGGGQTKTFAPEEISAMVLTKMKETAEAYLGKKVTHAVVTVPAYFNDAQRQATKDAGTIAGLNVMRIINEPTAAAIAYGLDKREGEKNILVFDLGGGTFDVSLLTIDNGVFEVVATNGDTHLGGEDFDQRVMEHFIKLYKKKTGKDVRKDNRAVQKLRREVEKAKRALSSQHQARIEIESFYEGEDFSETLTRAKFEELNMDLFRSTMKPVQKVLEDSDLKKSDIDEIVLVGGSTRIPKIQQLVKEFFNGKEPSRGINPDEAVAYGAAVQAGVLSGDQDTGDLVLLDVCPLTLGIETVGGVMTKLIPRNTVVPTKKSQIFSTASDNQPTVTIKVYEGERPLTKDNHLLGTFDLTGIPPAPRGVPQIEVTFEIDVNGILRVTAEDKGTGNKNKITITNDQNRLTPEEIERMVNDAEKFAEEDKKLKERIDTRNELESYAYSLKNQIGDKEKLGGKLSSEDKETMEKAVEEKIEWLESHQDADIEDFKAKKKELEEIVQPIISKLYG

| SMILES | GRP78 inhibition, SAR result in words (GRP78) | further results |
| --- | --- | --- |
| Oc1ccc(Cl)cc1Cc1cc(Cl)ccc1O [compound 5] | inactive |  |
| CCc1cc(Cc2cc(CC)cc(C(C)(C)C)c2O)c(O)c(C(C)(C)C)c1 [compound 8] | not tolerated |  |
| Oc1c(Cl)cc(Cl)c(Cl)c1Cc1c(O)c(Cl)cc(Cl)c1Cl [hexachlorophene] |  | induction of UPR markers (XBP1s, ATF4, CHOP) (HCT116 cells [1]): dose dependent induction; percentage of apoptotic cells (annexin V staining only) versus Taxol control (HCT116 cells [2]; 10 μM, 24 hours): same percentage of apoptotic cells; percentage of apoptotic cells versus Taxol control (HCT116 cells [2]; 25 μM, 24 hours): larger percentage of apoptotic cells than the Taxol control; mechanism of cell death (HCT116 cells [2]; 5, 10, or 25 μM, dose and time course): apoptotic cell death in a dose (Figure 6A) and time (Figure 6B) dependent manner; time of peak early apoptosis (annexin V positive and PI negative) (HCT116 cells [2]; time course): about 24 hours; time of peak late stage apoptosis (Annexin V and PI positive) (HCT116 cells [2]; time course): 36 h |
| Oc1ccccc1Cc1ccccc1O [compound 7] | inactive |  |
| O=C(Nc1cc(Cl)cc(Cl)c1O)c1c(O)c(Cl)cc(Cl)c1Cl [compound 9] | not tolerated |  |
| Cc1cc(Cc2cc(C)cc(C(C)(C)C)c2O)c(O)c(C(C)(C)C)c1 [compound 10] | not tolerated |  |
| Oc1cc(Cl)ccc1Oc1ccc(Cl)cc1Cl [compound 6] | not tolerated |  |
| Oc1c(Cl)cc(Cl)c(Cl)c1Sc1c(O)c(Cl)cc(Cl)c1Cl [compound 2] | tolerated |  |
